One assay has as its target TgCDPK1 (Toxoplasma gondii, UniProt Q9BJF5). It counts as biochemical.
In a further assay the target is CpCDPK1 (Cryptosporidium parvum (strain Iowa II), UniProt A3FQ16). Kind of assay: biochemical. It counts as biochemical.
The next assay deals with PfCDPK1 (Plasmodium falciparum (isolate 3D7), UniProt P62344). Kind of assay: biochemical. The following applies: for inhibition at 3 µM: read-out: PfCDPK1 (% inhibition @ 3 uM).
Another assay deals with PfCDPK4 (Plasmodium falciparum (isolate 3D7), UniProt Q8IBS5). Kind of assay: biochemical. Conditions: for inhibition at 3 µM: read-out: PfCDPK4 (% inhibition @ 3 uM).
The mark [1] stands for this setting: Table 8, read-out: IC50 (μM) CpCDPK1.

Like-named read-outs stand apart in the source and are kept apart here.

TgCDPK1, sequence (Q9BJF5 1-507): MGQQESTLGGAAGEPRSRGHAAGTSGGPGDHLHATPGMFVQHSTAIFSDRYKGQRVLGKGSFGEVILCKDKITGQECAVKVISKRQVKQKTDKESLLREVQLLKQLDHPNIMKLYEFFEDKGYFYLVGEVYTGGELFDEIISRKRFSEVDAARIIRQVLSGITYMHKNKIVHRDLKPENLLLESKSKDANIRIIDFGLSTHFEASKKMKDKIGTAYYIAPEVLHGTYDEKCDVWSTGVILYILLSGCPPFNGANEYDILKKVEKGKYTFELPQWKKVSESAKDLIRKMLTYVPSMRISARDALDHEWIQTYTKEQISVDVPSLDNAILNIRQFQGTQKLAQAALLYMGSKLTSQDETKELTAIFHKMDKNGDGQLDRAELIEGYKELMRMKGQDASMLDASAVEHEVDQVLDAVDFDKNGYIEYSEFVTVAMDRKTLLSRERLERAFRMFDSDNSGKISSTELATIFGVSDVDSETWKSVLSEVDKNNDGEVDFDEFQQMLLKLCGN
CpCDPK1, sequence (A3FQ16 1-538): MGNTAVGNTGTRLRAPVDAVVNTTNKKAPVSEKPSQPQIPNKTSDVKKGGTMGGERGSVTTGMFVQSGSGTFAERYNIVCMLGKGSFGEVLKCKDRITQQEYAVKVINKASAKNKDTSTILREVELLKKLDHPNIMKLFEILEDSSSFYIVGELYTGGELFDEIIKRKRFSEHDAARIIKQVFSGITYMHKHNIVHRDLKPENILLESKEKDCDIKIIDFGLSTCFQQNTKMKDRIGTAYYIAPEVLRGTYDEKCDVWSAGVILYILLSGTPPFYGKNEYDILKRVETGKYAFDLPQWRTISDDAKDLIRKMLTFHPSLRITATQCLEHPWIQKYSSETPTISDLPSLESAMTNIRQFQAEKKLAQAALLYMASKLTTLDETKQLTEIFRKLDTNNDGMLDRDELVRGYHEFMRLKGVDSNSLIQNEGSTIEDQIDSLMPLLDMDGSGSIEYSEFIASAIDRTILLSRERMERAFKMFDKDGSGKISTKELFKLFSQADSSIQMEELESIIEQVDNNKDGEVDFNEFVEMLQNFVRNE

Consider `CC(C)C(=O)Nc1ccc(-c2nn(C(C)(C)C)c3ncnc(N)c23)cc1` [Compound 59, N-(4-(4-amino-1-tert-butyl-1H-pyrazolo[3,4-d]pyrimidin-3-yl)phenyl)isobutyramide], for which the half-maximal inhibitory concentration (IC50) (usually the concentration that inhibits the measured activity by half) at TgCDPK1 (read-out: IC50 (μM) TgCDPK1) amounted to 0.0997 µM; at CpCDPK1 (setting [1]) it was 0.832 µM. The concentration giving a half-maximal response (EC50) – broadly, the concentration needed to bring the measured effect to its halfway point – on PfCDPK1 amounted to 111 nM; at PfCDPK4, 459 nM.
As to `CC(C)(C)n1nc(-c2ccc(NC(=O)C3CCCCC3)cc2)c2c(N)ncnc21` [Compound 64, N-(4-(4-amino-1-tert-butyl-1H-pyrazolo[3,4-d]pyrimidin-3-yl)phenyl)cyclohexanecarboxamide], the IC50 amounted to 0.143 µM at TgCDPK1 (read-out: IC50 (μM) TgCDPK1) and 0.928 µM on CpCDPK1 (setting [1]). In addition, the concentration for a half-maximal effect (EC50) on PfCDPK1 amounted to 128 nM; at PfCDPK4, 1080 nM.
As for `CC(C)(C)n1nc(-c2ccc(NC(=O)CCl)cc2)c2c(N)ncnc21` [Compound 58, N-(4-(4-amino-1-tert-butyl-1H-pyrazolo[3,4-d]pyrimidin-3-yl)phenyl)-2-chloroacetamide], the IC50 is 0.136 µM at TgCDPK1 (read-out: IC50 (μM) TgCDPK1) and 0.588 µM on CpCDPK1 (setting [1]). The EC50 on PfCDPK1 amounted to 214 nM; on PfCDPK4, 2430 nM.
The corresponding values for `CC(C)(C)C(=O)Nc1ccc(-c2nn(C(C)(C)C)c3ncnc(N)c23)cc1` [Compound 60, N-(4-(4-amino-1-tert-butyl-1H-pyrazolo[3,4-d]pyrimidin-3-yl)phenyl)pivalamide] are 0.0666 µM, 0.929 µM, 66.4 nM and 326 nM.
As for `CC(C)(C)n1nc(-c2ccc(NC(=O)c3ccccc3)cc2)c2c(N)ncnc21` [Compound 65, N-(4-(4-amino-1-tert-butyl-1H-pyrazolo[3,4-d]pyrimidin-3-yl)phenyl)benzamide], the values for the IC50 on TgCDPK1 (read-out: IC50 (μM) TgCDPK1) and at CpCDPK1 (setting [1]) were 0.171 µM and 1.16 µM, respectively. Further, the concentration giving a half-maximal response (EC50) is 101 nM on PfCDPK1 and 2850 nM on PfCDPK4.
Consider `COc1cc(-c2nn(C(C)C)c3ncnc(N)c23)cc(OC)c1OC` [Compound 7l, 1-isopropyl-3-(3,4,5-trimethoxyphenyl)-1H-pyrazolo[3,4-d]pyrimidin-4-amine], for which the IC50 at TgCDPK1 (read-out: TgCDPK1 IC50) was 0.42 µM; on CpCDPK1 (read-out: CpCDPK1 IC50), 0.093 µM. Also, the “selectivity TgCDPK1 versus CpCDPK1 (in words)” value at CpCDPK1 was “equipotent or slightly selective for CpCDPK1”. For the same compound, the inhibition (commonly the relative decrease from the control value, in per cent) at 3 µM at PfCDPK1 was 85%; at PfCDPK4 it was 31%.
Regarding `CC(C)c1nc(-c2ccc3ccccc3c2)c2c(N)nccn12` [Compound 8, 3-isopropyl-1-(naphthalen-2-yl)imidazo[1,5-a]pyrazin-8-amine], the concentration for half-maximal inhibition (IC50) amounted to 0.0048 µM at TgCDPK1 (read-out: IC50 (μM) TgCDPK1) and 0.0078 µM on CpCDPK1 (setting [1]). Besides, the concentration giving a half-maximal response (EC50) at PfCDPK1 worked out at 156 nM; at PfCDPK4, 91 nM.
Regarding `COc1ccc(-c2nn(C(C)C)c3ncnc(N)c23)cc1OC` [Compound 7k, 3-(3,4-dimethoxyphenyl)-1-isopropyl-1H-pyrazolo[3,4-d]pyrimidin-4-amine], the IC50 is 0.037 µM on TgCDPK1 (read-out: TgCDPK1 IC50), 0.173 µM at CpCDPK1 (setting [1]) and 0.17 µM on CpCDPK1 (read-out: CpCDPK1 IC50). For the same compound, the EC50 at PfCDPK1 was 1360 nM; at PfCDPK4 it was greater than 3000 nM.
As for `CC(C)CC(=O)Nc1ccc(-c2nn(C(C)(C)C)c3ncnc(N)c23)cc1` [Compound 62, N-(4-(4-amino-1-tert-butyl-1H-pyrazol[3,4-d]pyrimidin-3-yl)phenyl)-3-methylbutanamide], the IC50 at TgCDPK1 (read-out: IC50 (μM) TgCDPK1) was found to be 0.0409 µM; on CpCDPK1 (setting [1]), 0.692 µM. In addition, the EC50 on PfCDPK1 came to 37.7 nM; at PfCDPK4 it was 140 nM.
`CSc1cccc(-c2nn(C(C)C)c3ncnc(N)c23)c1` [Compound 7ab, 1-isopropyl-3-(3-(methylthio)phenyl)-1H-pyrazolo[3,4-d]pyrimidin-4-amine]: the IC50 is 0.056 µM at TgCDPK1 (read-out: IC50 (μM) TgCDPK1) and 0.121 µM at CpCDPK1 (read-out: IC50 (μM) CpCDPK1). For the same compound, the inhibition at 3 µM on PfCDPK1 worked out at 85%; at PfCDPK4, 79%.
`CC(C)n1nc(-c2ccc3c(c2)OCO3)c2c(N)ncnc21` [Compound 7u, 3-(benzo[d][1,3]dioxol-5-yl)-1-isopropyl-1H-pyrazolo[3,4-d]pyrimidin-4-amine]: the figures for the half-maximal inhibitory concentration (IC50) on TgCDPK1 (read-out: IC50 (μM) TgCDPK1) and on CpCDPK1 (read-out: IC50 (μM) CpCDPK1) were 0.045 µM and 0.312 µM, respectively. For the same compound, the EC50 on PfCDPK1 came out at 422 nM; on PfCDPK4, 1100 nM.

These data come from US9765037B2, “Compositions and methods for treating toxoplasmosis, cryptosporidiosis, and other apicomplexan protozoan related diseases” (University of Washington Through its Center for …, priority 2010, dated 2017).
